Data on 2 molecules can be found in patent US20100286058A1, “Assessing Chemotherapy Resistance of Colorectal Tumors by Determining Sparc Hypermethylation” (priority 2007, published 2010).

Experiment [1] has as its system HCT 116 cells. Kind of experiment: Cell proliferation (cell counts). Format: cell-based, Human. The conditions noted are these: incubated with 5-Aza, most noticeable after 2-days. The procedure:
(§1) Human colorectal cancer (CRC) cell lines, MIP 101, RKO, HCT116 and HT29 (ATCC), and a normal colon cell line CCD 112CON (ATCC), were maintained in DMEM supplemented with 10% fetal bovine serum; 1% Kanamycin, Streptomycin, Penicillin; and incubated at 37° C. and 5% CO2. To determine the effect of reversing the methylation status of SPARC, a demethylating agent (5-Aza-2′deoxycytidine, “5-Aza”) was added to the culture media at a final concentration of 4 μm for a period of 7 days with medium changes on day 4, before assessing its effect on cell viability (WST-1), apoptosis (Caspase 3/7 and TUNEL) and cell proliferation.
(§2) To determine the rate of cell proliferation, cells exposed to 5-Aza for 7 days (and untreated controls) were seeded at 20,000 cells/well into a 48-well plate. Cells were counted from duplicate wells at 24, 48 and 72 h. The effect of 5-FU exposure for 24 hour-period on cell proliferation in the presence or absence of 5-Aza was also determined. We performed two independent experiments.

Experiment [2] has as its system HT29 cells. Kind of experiment: Cell proliferation (cell counts). In kind it is cell-based, Human. Particulars: incubated with 5-Aza, most noticeable after 2-days. As for the experimental part: as §1, §2
Experiment [3] has as its system MIP101 cells. Kind of experiment: Cell proliferation (cell counts). Format: cell-based, Human. As for the experimental part: as §1, §2
The test system of experiment [4] is RKO cells. Briefly: Cell proliferation (cell counts). In kind it is cell-based, Human. The procedure: as §1, §2
Experiment [5] relates to SPARC promoter. Kind of experiment: Methylation specific PCR of CRC cell lines. In kind it is cell-based, Human. Particulars: 4 μM 5-Aza, 7 days in vitro; all four CRC cell lines (MIP101, RKO, HCT116, HT29). As for the experimental part: as §1
This technique is based on bisulfite treatment of the DNA, which modifies cytosines to uracil except when they are methylated (5-methylcytosine), followed by PCR. After bisulfite modification the DNA was amplified using methylation specific primers. Two primer sets, previously described, were used to target the CpG island located in the putative promoter region of the SPARC gene, and are referred as MSP1 and MSP2. Primers targeting INK4A(p16) were used as control. […] For RT-PCR, mRNA isolated from CRC cell lines were extracted using Trizol (Invitrogen). […]

Experiment [6] has as its system INK4A(p16) promoter. Kind of experiment: Methylation specific PCR of CRC cell lines (control promoter). Format: cell-based, Human. The conditions noted are these: 4 μM 5-Aza, 7 days in vitro; all four CRC cell lines.
Experiment [7] deals with T1, interaction between Dnmtl and the SPARC promoter (Homo sapiens, UniProt P26358).
T1 construct: endogenous in cells
Kind of experiment: Chromatin immunoprecipitation (ChIP) assay. The conditions noted are these: all CRC cell lines, following exposure to 5-Aza. In kind it is cell-based. The procedure:
To evaluate the effect of 5-Aza exposure on the interaction between Dnmtl (a DNA methyltranferase) with the promoter region of SPARC, a ChIP assay was performed using a ChIP kit (Epigentek) as per the manufacturer's instructions. Cells were fixed with formaldehyde for protein/DNA crosslinking and lysed. The DNA was sheared by sonication (10 pulses, […]) and added to a well coated with the antibody to the protein of interest (anti-Dnmtl, cat. #A-1001, Epigentek). Washes were performed to remove unbound material, while Dnmtl-bound DNA was released by protein digestion with proteinase K. The DNA was purified through a column and PCR was performed using primers designed to target the SPARC promoter region.

The subject of experiment [8] is SPARC. Kind of experiment: RT-PCR of SPARC mRNA. In kind it is cell-based, Human. The conditions noted are these: MIP101 cells exposed to 5-Aza. The source says: This technique is based on bisulfite treatment of the DNA, which modifies cytosines to uracil except when they are methylated (5-methylcytosine), followed by PCR. After bisulfite modification the DNA was amplified using methylation specific primers. Two primer sets, previously described, were used to target the CpG island located in the putative promoter region of the SPARC gene, and are referred as MSP1 and MSP2. Primers targeting INK4A(p16) were used as control. […] For RT-PCR, mRNA isolated from CRC cell lines were extracted using Trizol (Invitrogen). Primers to amplify SPARC, sense 5′-GGGAGGGCCTTGGCAG-3′ antisense 5′-GCACATGGGGGTGTTG-3′ and actin, sense 5′-GCCACGGCTGCTTCCAG-3′antisense 5′-GGCGTACAGGTCTTTGC-3′ were annealed at 49° C. in 45 cycles after reverse transcription for 1 hour at 50° C. Amplicons were separated in 2.5% agarose gel electrophoresis.

For experiment [9], the system named is SPARC. Briefly: Western blot of SPARC protein. The conditions noted are these: MIP101 cells (printed MW101) exposed to 5-Aza. Format: cell-based, Human.
Experiment [10] concerns MIP 101 cells. Kind of experiment: Cell viability (WST-1). Format: cell-based. Particulars: 24 h, read-out: viable cells. The procedure: as §1
Cell viability was evaluated using WST-1 (Roche) following the manufacturer's instructions. Cells exposed to 5-Aza for a period of 7 days (and untreated controls) were seeded at 10,000 cells per well in triplicate into a 96-well plate. Twelve hours later, 5-Fluorouracil (5-FU) was added to a final concentration of 0, 500 or 1,000 μM for an additional 24 h. WST reagent was added to each well and incubated at 37° C. after which plates were read at 60 min at 440 nm. Three independent experiments were analyzed. The significance of differences were determined using Student's t-test (P<0.05).

Where “and” joins values, the source holds several entries; their conditions need not be identical. Equal entries are not always repeated. Entries after “also recorded” stand apart in the source; their conditions may differ.

T1 sequence (P26358 whole entry): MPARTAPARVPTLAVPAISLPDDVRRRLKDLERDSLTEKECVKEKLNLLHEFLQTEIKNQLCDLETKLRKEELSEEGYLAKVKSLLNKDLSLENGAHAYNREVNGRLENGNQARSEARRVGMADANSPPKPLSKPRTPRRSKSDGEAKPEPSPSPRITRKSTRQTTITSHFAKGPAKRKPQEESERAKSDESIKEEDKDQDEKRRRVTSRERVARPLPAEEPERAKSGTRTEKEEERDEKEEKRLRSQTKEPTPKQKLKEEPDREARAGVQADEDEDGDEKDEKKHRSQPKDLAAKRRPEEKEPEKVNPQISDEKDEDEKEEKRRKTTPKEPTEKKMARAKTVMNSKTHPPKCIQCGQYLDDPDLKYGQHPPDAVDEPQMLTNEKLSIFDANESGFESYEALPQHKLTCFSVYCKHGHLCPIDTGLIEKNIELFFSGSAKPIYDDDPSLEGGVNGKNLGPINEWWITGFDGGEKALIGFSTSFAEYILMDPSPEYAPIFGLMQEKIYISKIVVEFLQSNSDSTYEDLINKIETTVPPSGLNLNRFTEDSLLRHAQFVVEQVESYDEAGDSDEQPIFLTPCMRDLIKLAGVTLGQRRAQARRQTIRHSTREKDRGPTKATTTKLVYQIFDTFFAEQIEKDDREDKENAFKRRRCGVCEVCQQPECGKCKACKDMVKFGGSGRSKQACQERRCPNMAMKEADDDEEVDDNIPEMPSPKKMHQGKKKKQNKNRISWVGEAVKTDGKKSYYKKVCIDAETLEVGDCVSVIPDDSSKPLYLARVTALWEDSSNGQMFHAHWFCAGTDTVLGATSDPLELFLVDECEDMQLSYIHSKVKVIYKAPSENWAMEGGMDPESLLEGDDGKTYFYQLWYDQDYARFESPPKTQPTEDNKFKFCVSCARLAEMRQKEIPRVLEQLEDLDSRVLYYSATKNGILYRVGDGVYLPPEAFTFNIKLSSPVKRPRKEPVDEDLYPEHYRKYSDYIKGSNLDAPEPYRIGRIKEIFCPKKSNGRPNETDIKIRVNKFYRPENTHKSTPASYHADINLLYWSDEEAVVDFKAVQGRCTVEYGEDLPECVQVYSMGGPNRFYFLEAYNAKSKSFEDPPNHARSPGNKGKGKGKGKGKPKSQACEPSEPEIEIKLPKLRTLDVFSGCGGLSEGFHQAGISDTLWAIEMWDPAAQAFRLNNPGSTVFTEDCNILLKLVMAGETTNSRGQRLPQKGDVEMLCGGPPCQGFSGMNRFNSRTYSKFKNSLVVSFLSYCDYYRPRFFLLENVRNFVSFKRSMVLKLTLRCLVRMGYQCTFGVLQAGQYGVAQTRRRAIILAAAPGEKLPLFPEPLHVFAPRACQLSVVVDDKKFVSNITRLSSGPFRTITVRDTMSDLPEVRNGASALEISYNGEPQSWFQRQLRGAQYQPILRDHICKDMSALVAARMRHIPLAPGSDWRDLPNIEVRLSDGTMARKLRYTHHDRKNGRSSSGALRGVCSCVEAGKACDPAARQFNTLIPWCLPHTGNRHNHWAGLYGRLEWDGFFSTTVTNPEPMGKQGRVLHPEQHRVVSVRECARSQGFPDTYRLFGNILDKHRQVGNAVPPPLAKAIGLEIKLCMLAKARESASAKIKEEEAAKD

As for `Nc1ncn([C@H]2C[C@H](O)[C@@H](CO)O2)c(=O)n1` [5-Aza, 5-Aza-2′deoxycytidine], the cell proliferation result in [1] and in experiment [2] was “less dramatic yet significant decrease in cell proliferation” throughout. Further, the “increase in cell doubling time” value in [3] (4 μM 5-Aza vs control) is 3 fold; in experiment [4] (4 μM 5-Aza vs control), 2.4 fold and 2.43 fold. For the same molecule, the figures for the doubling time in experiment [3] (incubation with 4 μM 5-Aza (control 0.8 days)) and in [4] (incubation with 4 μM 5-Aza (control 0.7 days)) were 2.4 days and 1.7 days, respectively. For the same molecule, in experiment [5], the “methylation status in the MSP1 and MSP2 regions of the SPARC promoter” value is reported as “change in the methylation status”. The “methylation status of the INK4A(p16) promoter” value in experiment [6] was “change in the methylation status”. Besides, in experiment [7], the “interaction between the SPARC promoter and Dnmtl (ChIP)” value is reported as “no longer observed”. The “SPARC RNA expression (RT-PCR)” value in [8] was “higher SPARC expression; also recorded: reactivation of SPARC RNA and protein expression”. Moreover, the “SPARC protein expression (Western blot)” value in experiment [9] is “reactivation of SPARC RNA and protein expression”.

Consider `O=c1[nH]cc(F)c(=O)[nH]1` [5-FU, 5-Fluorouracil], for which, in [10] (Homo sapiens, 500 μM 5-FU only), the viability at 500 µM is 87.7%. For the same molecule, the viability at 1000 µM in experiment [10] (Homo sapiens, 1,000 μM 5-FU only) was 82.7%.
